Laboratory results published in ChEMBL document CHEMBL5500385, “Macrocyclization strategy for improving candidate profiles in medicinal chemistry” (Eur J Med Chem, 2024).
Each block holds one compound with its values, some of them ahead of it.

Experiments:
Prothrombin = Prothrombin (Homo sapiens, UniProt P00734)
Description: Binding affinity to thrombin (unknown origin) assessed as inhibition constant

Plasminogen = Plasminogen (Homo sapiens, UniProt P00747)
Description: Binding affinity to plasmin (unknown origin) assessed as inhibition constant

[1] = target: T1, Peptidyl-prolyl cis-trans isomerase FKBP4 (Homo sapiens, UniProt Q02790)
T1 sequence (Q02790 whole entry): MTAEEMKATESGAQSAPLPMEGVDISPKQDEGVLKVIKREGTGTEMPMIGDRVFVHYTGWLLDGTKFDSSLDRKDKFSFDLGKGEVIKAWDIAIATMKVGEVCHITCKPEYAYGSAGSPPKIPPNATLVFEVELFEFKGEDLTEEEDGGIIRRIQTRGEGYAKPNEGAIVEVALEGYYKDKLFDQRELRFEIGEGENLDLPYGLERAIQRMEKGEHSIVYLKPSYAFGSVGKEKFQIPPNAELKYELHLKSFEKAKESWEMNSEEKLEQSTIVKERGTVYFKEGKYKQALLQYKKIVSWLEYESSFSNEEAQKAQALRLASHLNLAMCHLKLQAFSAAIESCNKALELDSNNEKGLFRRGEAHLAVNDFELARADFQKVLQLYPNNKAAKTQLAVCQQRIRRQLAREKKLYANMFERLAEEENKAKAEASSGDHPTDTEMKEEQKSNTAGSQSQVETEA
Description: Binding affinity to FKBP52 (unknown origin) assessed as dissociation constant by fluorescence polarization assay

in vitro = conditions: human, liver microsomes
[2] = target: T1, Peptidyl-prolyl cis-trans isomerase FKBP4; remark: listed apart in the source
Description: Binding affinity to FKBP52 (unknown origin) assessed as inhibition constant by fluorescence polarization assay

ATP-citrate synthase [3] = target: T2, ATP-citrate synthase (Homo sapiens, UniProt P53396)
T2 sequence (P53396 whole entry): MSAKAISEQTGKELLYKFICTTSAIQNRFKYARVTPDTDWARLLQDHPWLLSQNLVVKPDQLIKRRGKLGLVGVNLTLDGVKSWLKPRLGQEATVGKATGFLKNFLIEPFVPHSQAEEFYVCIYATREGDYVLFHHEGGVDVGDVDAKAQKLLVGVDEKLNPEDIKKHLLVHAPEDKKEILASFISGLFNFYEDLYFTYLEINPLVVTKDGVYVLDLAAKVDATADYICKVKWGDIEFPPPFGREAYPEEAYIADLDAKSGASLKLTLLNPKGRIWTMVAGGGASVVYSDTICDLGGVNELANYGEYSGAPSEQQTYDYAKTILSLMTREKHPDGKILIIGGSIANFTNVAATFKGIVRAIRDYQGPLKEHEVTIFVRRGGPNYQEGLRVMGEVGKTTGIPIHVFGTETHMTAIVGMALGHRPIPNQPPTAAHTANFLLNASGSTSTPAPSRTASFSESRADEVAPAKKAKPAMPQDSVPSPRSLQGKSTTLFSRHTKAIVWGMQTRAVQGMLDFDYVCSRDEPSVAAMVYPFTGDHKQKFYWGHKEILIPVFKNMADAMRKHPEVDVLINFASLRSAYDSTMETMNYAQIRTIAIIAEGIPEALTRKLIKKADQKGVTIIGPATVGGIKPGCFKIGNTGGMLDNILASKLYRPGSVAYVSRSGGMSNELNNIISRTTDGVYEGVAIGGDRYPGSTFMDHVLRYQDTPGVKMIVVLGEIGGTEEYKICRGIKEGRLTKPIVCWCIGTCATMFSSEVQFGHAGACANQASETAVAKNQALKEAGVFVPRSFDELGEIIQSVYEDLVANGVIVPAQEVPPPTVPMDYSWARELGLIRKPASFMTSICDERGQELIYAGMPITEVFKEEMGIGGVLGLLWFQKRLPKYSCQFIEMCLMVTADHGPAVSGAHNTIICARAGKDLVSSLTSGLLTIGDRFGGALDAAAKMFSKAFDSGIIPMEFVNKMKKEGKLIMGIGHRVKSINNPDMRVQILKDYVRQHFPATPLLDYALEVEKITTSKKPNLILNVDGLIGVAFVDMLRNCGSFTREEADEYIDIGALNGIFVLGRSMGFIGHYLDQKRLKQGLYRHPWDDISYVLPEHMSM
Description: Binding affinity to ATP citrate lyase (unknown origin) assessed as dissociation constant

ATP-citrate synthase [4] = target: T2, ATP-citrate synthase; remark: listed apart in the source
Description: Inhibition of ATP citrate lyase (unknown origin)

[5] = target: Tyrosine-protein kinase JAK2 (Homo sapiens, UniProt O60674)
Description: Inhibition of JAK2 (unknown origin)

HEL = assay: cells; conditions: Homo sapiens
Description: Antiproliferative activity against human HEL cells assessed as reduction in cell growth

SET-2 = assay: cells; conditions: Homo sapiens
Description: Antiproliferative activity against human SET2 cells assessed as reduction in cell viability

[6] = target: T3, Muscleblind-like protein 1 (Homo sapiens, UniProt Q9NR56)
T3 sequence (Q9NR56 whole entry): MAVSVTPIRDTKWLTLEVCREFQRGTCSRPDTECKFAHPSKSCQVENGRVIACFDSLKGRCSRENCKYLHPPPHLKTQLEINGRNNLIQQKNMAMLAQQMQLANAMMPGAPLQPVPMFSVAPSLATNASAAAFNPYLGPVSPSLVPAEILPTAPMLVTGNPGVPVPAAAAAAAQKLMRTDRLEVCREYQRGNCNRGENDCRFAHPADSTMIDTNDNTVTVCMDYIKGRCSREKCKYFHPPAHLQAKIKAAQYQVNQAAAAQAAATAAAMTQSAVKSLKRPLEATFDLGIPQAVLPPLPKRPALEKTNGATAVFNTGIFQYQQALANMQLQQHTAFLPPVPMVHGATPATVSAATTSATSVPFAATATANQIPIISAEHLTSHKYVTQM
Description: Binding affinity to MBNL1 (unknown origin) (1 to 272 residues) assessed as dissociation constant

[7] = target: Calcitonin gene-related peptide type 1 receptor (Homo sapiens, UniProt O60894+Q16602)
Chain of Calcitonin gene-related peptide type 1 receptor (Q16602 whole entry, one chain of several): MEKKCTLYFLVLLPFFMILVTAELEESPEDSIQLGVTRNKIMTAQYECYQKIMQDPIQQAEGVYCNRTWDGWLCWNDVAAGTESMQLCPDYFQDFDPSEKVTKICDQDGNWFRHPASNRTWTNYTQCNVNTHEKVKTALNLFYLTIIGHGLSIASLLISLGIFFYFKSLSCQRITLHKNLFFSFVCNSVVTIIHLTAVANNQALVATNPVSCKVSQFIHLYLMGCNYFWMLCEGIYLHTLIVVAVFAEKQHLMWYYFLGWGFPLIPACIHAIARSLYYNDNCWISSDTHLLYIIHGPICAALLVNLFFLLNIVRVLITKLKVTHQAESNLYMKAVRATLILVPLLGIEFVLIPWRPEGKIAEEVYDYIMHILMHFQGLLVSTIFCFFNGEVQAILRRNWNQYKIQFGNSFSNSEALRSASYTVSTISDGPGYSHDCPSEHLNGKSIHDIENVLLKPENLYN
Description: Inhibition of CGRP (unknown origin)

Chain of Tyrosine-protein kinase JAK2 (O60674 whole entry): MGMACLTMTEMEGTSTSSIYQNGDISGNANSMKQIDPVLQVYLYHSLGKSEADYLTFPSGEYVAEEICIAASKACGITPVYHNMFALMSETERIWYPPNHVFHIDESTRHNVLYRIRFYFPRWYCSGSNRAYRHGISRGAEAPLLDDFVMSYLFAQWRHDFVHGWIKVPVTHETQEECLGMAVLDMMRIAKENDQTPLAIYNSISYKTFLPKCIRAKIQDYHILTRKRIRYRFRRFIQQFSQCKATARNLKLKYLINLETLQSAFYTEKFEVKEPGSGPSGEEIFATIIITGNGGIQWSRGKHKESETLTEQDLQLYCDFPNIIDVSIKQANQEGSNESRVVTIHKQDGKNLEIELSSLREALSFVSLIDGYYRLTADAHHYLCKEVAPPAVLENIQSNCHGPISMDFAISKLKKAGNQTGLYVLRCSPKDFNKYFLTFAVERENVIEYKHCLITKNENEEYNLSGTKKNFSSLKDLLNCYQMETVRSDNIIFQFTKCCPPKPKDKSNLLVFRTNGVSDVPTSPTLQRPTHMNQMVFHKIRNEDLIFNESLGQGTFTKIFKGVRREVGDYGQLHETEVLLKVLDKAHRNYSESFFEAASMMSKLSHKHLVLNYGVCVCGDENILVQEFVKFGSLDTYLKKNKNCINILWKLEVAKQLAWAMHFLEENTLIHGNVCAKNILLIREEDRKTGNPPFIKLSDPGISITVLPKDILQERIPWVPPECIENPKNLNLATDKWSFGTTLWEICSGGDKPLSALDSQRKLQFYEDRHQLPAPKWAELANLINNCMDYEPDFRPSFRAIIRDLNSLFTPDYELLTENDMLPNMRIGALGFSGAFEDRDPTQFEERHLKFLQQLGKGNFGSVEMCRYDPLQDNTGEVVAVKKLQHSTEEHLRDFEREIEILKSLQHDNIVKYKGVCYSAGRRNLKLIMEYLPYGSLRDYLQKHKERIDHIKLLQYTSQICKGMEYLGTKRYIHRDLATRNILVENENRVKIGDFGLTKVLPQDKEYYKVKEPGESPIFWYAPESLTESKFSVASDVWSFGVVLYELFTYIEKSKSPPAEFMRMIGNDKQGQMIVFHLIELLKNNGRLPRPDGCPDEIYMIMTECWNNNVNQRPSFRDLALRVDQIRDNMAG
Chain of Plasminogen (P00747 97-580 limits assumed): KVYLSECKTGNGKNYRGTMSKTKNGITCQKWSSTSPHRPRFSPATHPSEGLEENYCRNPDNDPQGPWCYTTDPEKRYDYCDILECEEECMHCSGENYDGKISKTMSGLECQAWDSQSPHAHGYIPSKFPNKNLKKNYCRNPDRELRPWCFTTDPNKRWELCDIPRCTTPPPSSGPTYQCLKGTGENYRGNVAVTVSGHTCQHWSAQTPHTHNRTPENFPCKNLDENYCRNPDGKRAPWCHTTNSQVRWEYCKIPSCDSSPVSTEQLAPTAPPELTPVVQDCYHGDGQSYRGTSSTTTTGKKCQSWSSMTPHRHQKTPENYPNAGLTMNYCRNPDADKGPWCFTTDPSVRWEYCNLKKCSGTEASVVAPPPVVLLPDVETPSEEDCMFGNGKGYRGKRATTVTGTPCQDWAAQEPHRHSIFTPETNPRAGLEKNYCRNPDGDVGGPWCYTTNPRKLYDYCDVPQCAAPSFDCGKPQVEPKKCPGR
Chain of Plasminogen (P00747 581-810 limits assumed): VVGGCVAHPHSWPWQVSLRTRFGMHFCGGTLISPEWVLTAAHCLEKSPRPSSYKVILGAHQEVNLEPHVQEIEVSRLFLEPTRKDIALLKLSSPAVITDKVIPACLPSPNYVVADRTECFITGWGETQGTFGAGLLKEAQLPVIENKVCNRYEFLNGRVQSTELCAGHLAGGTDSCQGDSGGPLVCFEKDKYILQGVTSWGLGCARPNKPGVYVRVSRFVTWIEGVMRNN

Compound: O=C1NCc2ccccc2-c2cc(c(F)cc2F)NS(=O)(=O)c2cc1cc(Cl)c2O
CLint scaled (in vitro): 3.27 mL/min/kg

Compound: COC(=O)c1cc(Cl)c(O)c(S(=O)(=O)Nc2cc(-c3ccccc3)c(F)cc2F)c1
CLint scaled (in vitro): 372 mL/min/kg
Kd (ATP-citrate synthase [3]): 128 nM
IC50 (ATP-citrate synthase [4]): 44 nM

Compound: COc1ccc2nc3cc(Cl)ccc3c(NCCCCNc3nc(N)nc(N)n3)c2c1
Kd [6]: 300 nM

Compound: Cc1cc(C[C@@H](NC(=O)c2cnc3c(c2)C[C@@]2(C3)C(=O)Nc3ncccc32)C(=O)N(C)C)cc2cn[nH]c12
IC50 [7]: 10 nM

More lines, now with the values ahead:

Ki (Prothrombin): 667 nM
Ki (Plasminogen): 0.81 nM
Compound: N=C(N)c1ccc(CNC(=O)[C@H](Cc2cccc(C(=N)N)c2)NC(=O)[C@@H](CCCc2ccccc2)NS(=O)(=O)Cc2cccc(C(=O)O)c2)cc1

Kd [1]: > 10000 nM
Compound: COc1cccc([C@@H](CCc2ccc(OC)c(OC)c2)OC(=O)[C@@H]2CCCCN2C(=O)[C@H](c2cc(OC)c(OC)c(OC)c2)C2CCCCC2)c1

Ki [2]: > 50000 nM
Compound: COc1ccc(CC[C@@H](OC(=O)[C@@H]2CCCCN2C(=O)[C@H](c2cc(OC)c(OC)c(OC)c2)C2CCCCC2)c2cccc(OCC(=O)O)c2)cc1OC

Ki [2]: > 50000 nM
Compound: COc1ccc(CC[C@@H](OC(=O)[C@@H]2CCCCN2C(=O)[C@H](c2cc(OC)c(OC)c(OC)c2)C2CCCCC2)c2cccc(OCCN3CCOCC3)c2)cc1OC

IC50 [5]: 6 nM
IC50 (HEL): 3060 nM
IC50 (SET-2): 11100 nM
Compound: Cc1cnc2nc1Nc1cccc(c1)COC/C=C/COCc1cc(ccc1OCCN1CCCC1)N2
